Measurements from ChEMBL document CHEMBL1152277, “Lead optimization of 4-acetylamino-2-(3,5-dimethylpyrazol-1-yl)-6-pyridylpyrimidines as A2A adenosine receptor antagonists for the treatment of Parkinson's disease” (J Med Chem, 2008).
In brackets after ≈: the same amount, converted by molar mass.

How the values were obtained:
Adenosine receptor A1 = biological target: T1, Adenosine receptor A1 (Homo sapiens, UniProt P30542); assay: Displacement of [3H]DPCPX from human adenosine A1 receptor expressed in HEK293 cells; type: cell-based
T1 sequence (P30542 whole entry): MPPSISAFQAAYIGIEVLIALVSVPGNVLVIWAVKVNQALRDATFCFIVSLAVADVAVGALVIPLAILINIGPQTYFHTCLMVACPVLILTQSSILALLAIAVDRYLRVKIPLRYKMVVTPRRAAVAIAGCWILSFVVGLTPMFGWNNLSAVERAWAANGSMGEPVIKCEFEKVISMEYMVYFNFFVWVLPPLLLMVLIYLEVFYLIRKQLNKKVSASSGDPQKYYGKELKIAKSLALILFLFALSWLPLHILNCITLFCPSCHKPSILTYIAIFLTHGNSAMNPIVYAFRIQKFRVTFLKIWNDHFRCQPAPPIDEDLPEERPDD

Rattus norvegicus [1] = assay: Inhibition of haloperidol-induced catalepsy in rat at 30 mg/kg, po after 2 hrs; type: functional
[2] = Aqueous solubility in phosphate-buffered saline at pH 7.4; type: physicochemical
Cytochrome P450 3A4 = Cytochrome P450 3A4 (Homo sapiens, UniProt P08684)
Description: Inhibition of CYP3A4 in human liver microsomes by LC-MS/MS analysis

[3] = Metabolic stability in rat liver microsomes assessed as intrinsic clearance by LC-MS/MS analysis; type: ADME, Microsome
Rattus norvegicus [4] = organism: Rattus norvegicus; assay: Inhibition of haloperidol-induced catalepsy in rat assessed as minimal effective dose; type: functional; settings: read-out: MED
[5] = Drug concentration in rat brain at 30 mg/kg, po after 2 hrs; type: ADME, organism-based; parameters: dose 30 mg/kg, route oral; settings: read-out: Drug uptake
Adenosine receptor A2a [6] = biological target: T2, Adenosine receptor A2a (Homo sapiens, UniProt P29274); assay: Displacement of [3H][…] from human adenosine A2A receptor expressed in HEK293 cells; type: cell-based
[7] = Plasma concentration in rat at 30 mg/kg, po after 2 hrs; type: ADME, organism-based; parameters: dose 30 mg/kg, route oral
Adenosine receptor A2a [8] = biological target: T2, Adenosine receptor A2a; assay: Antagonist activity at human adenosine A2A receptor expressed in CHO cells assessed as inhibition of CGS-21680-induced cAMP production; type: functional, cell-based
Homo sapiens = organism: Homo sapiens; assay: Selectivity ratio of Ki for human adenosine A1 receptor to Ki for human adenosine A2A receptor
[9] = Plasma concentration in rat at 10 mg/kg, po after 2 hrs; type: ADME, organism-based; parameters: dose 10 mg/kg, route oral
Adenosine receptor A2a [10] = biological target: Adenosine receptor A2a (Rattus norvegicus, UniProt P30543); assay: Displacement of [3H][…] from rat adenosine A2A receptor expressed in CHO cells; type: cell-based
[11] = Drug concentration in rat brain at 10 mg/kg, po after 2 hrs; type: ADME, organism-based; parameters: dose 10 mg/kg, route oral; settings: read-out: Drug uptake
[12] = Metabolic stability in human liver microsomes assessed as intrinsic clearance by LC-MS/MS analysis; type: ADME, Microsome

T2 sequence (P29274 whole entry): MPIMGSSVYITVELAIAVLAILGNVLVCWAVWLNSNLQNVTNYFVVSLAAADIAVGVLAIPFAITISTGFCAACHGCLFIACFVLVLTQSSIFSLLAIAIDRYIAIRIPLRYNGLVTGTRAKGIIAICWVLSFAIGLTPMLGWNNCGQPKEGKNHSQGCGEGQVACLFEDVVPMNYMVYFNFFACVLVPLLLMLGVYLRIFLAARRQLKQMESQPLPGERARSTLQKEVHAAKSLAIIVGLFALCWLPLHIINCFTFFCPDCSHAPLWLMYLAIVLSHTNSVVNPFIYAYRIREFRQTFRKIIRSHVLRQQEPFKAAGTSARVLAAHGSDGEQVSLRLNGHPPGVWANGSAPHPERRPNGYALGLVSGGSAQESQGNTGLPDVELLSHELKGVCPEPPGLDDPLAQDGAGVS
Sequence of Cytochrome P450 3A4 (P08684 whole entry): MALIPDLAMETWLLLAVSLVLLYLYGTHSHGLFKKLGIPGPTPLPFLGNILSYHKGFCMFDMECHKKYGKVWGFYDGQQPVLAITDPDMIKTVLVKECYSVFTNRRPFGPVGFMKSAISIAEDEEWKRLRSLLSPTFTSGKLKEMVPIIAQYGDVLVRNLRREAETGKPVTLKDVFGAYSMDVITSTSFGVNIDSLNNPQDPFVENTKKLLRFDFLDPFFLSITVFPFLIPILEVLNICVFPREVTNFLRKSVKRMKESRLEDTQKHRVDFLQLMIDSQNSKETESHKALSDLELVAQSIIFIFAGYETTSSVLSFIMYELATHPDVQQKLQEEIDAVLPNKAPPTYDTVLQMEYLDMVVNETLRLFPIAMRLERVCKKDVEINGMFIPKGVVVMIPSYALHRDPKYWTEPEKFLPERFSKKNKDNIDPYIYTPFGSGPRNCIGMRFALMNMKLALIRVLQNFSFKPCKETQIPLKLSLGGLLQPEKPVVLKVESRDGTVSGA
Sequence of Adenosine receptor A2a (Rattus norvegicus, UniProt P30543) (P30543 whole entry): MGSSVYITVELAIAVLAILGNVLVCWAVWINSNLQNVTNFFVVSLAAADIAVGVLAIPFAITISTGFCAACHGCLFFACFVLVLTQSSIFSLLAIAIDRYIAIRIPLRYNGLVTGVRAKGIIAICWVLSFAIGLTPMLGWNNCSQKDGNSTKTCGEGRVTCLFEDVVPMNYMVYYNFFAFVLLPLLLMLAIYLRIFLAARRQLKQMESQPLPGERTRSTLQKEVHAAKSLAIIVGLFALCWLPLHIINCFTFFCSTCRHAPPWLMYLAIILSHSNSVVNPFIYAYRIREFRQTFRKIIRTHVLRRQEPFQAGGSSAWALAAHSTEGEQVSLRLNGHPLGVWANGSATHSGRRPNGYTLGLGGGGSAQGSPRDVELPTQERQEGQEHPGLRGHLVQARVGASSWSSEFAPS

Ki (Adenosine receptor A1): 470 nM
solubility [2]: 200 µg/mL (≈ 491 µM)
IC50 (Cytochrome P450 3A4): > 20000 nM
CLint scaled [3]: 230 mL/min/kg
concentration at 2 h [5]: 91 ng/g
Ki (Adenosine receptor A2a [6]): 1.9 nM
concentration at 2 h [7]: 180 ng/mL
IC50 (Adenosine receptor A2a [8]): 22 nM
Ratio Ki (Homo sapiens): 247
concentration at 2 h [9]: 16 ng/mL
Ki (Adenosine receptor A2a [10]): 10 nM
concentration at 2 h [11]: 9 ng/g
CLint scaled [12]: 43 mL/min/kg
Compound: CC(=O)Nc1cc(-c2cccc(N3CCC(O)CC3)n2)nc(-n2nc(C)cc2C)n1
inhibition in vivo at 30 mg/kg (Rattus norvegicus [1]): 90%
minimal effective dose (Rattus norvegicus [4]): 30 mg/kg
